Drawing on patent US20180148418A1, “AMIDO-SUBSTITUTED CYCLOHEXANE DERIVATIVES” (Bayer Pharma Aktiengesellschaft, priority 2015, published 2018), this text covers IC50 for 18 molecules.

One assay concerns the target T1, TNKS2 (Homo sapiens, UniProt Q9H2K2).
T1 construct: purchased BPS Bioscience, San Diego, USA 80572 (TNKS2 Histone Ribosylation Assay Kit)
T1 sequence (Q9H2K2 1-1166): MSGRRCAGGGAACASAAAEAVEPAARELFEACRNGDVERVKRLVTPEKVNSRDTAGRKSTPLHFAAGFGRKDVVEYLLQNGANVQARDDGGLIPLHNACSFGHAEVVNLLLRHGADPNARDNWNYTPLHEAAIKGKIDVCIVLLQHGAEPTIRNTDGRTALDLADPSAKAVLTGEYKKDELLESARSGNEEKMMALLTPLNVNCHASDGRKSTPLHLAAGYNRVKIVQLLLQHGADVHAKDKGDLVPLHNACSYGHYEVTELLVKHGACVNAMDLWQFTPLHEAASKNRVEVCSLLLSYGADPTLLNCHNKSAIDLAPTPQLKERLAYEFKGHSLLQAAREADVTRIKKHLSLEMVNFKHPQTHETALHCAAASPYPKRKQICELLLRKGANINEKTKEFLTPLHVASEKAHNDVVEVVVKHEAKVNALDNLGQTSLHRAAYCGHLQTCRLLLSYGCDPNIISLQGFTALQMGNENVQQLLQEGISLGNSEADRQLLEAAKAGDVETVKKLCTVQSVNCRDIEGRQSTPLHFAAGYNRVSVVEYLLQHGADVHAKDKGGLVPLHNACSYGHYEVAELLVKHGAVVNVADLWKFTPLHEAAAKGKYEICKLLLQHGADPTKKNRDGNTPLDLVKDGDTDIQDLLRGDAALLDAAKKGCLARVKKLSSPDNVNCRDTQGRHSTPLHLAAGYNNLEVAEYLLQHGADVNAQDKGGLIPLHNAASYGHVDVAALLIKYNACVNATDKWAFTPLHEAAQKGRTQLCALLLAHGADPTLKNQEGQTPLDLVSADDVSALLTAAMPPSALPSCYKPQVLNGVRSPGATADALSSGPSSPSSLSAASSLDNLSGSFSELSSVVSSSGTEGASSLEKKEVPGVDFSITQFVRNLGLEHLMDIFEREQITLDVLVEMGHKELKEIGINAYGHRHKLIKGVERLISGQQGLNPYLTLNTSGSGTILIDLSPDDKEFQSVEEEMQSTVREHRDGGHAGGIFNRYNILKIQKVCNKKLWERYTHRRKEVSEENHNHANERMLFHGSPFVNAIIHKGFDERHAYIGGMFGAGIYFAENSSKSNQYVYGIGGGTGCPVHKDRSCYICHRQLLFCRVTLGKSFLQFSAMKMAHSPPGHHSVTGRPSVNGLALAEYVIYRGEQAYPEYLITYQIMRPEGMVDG
Briefly: TNKS2 Assay B (auto-parsylation, [3H]-NAD+ SPA). It is filed as biochemical. The settings on record: 6 nM TNKS2, auto-parsylation, over night at room temperature.

Assay [1] relates to wildtype Wnt signaling cascade. The experiment in a line: HEK293 TOP assay (Super TopFlash luciferase reporter, Wnt-3a stimulated). It is filed as cell-based. The settings on record: Homo sapiens, HEK293, 16 h, HEK293 TOP reporter cells, Wnt3a at EC50, 16 hours. The method, boiled down:
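Compound series (50 μM down to 15 nM, 3.16-fold) diluted from DMSO 50-fold into CAFTY buffer, pH 7.4, 2 mM Ca^2+, 0.01% BSA, applied to Wnt-3a-stimulated HEK293 TopFlash and FOP reporter lines in parallel. Cells seeded 10000/well 24 h before; luciferase signal measured.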

Assay [2] deals with HEK293 cells cotransfected with the FOP control vector. The experiment in a line: HEK293 FOP assay (control reporter with non-functional TCF elements). It is filed as cell-based. The settings on record: Homo sapiens, 16 hours. In short, it runs like this:
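Compound series from 50 μM down to 15 nM, prediluted in DMSO then 50-fold into CAFTY buffer (pH 7.4, 2 mM Ca2+, 0.01% BSA), tested alongside TOP cells on a Geneticin-selected HEK293 FOP line whose TCF elements are replaced by a random sequence; recombinant human Wnt-3a applied at 2500-5 ng/ml.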

Take `O=C(N[C@H]1CC[C@@]2(CCN(c3cccc(Cl)c3)C2=O)CC1)c1[nH]cnc1C(=O)N1CCOCC1` [Example 286, N-[(trans)-2-(3-chlorophenyl)-1-oxo-2-azaspiro[4.5]dec-8-yl]-4-(morpholin-4-ylcarbonyl)-1H-imidazole-5-carboxamide]: the IC50 on TNKS2 was 4400 nM; in assay [1] it was 28 nM; in assay [2], at least 50000 nM.

Regarding `COCC(C)NC(=O)c1nc[nH]c1C(=O)N[C@H]1CC[C@@]2(CCN(c3cccc(Cl)c3)C2=O)CC1` (stereo partly drawn) [Example 285, N^5-[(trans)-2-(3-chlorophenyl)-1-oxo-2-azaspiro[4.5]dec-8-yl]-N^4-(1-methoxypropan-2-yl)-1H-imidazole-4,5-dicarboxamide], the figures for the IC50 (against TNKS2; in assay [1]; in assay [2]) were 380 nM, 92 nM and 16000 nM, respectively.

`CNC(=O)c1nc[nH]c1C(=O)N[C@H]1CC[C@H](C(=O)Nc2c(F)cc(F)cc2Br)CC1` [Example 28, N^5-{trans-4-[(6-bromo-2,4-difluorophenyl)carbamoyl]cyclohexyl}-N^4-methyl-1H-imidazole-4,5-dicarboxamide]: the half-inhibitory concentration (IC50) is 26 nM against TNKS2, 24 nM in assay [1] and at least 50000 nM in assay [2].

As for `COC(C)CNC(=O)c1nc[nH]c1C(=O)N[C@H]1CC[C@H](C(=O)Nc2ccc(F)cc2Cl)CC1` (stereo partly drawn) [Example 81, N^5-{trans-4-[(2-chloro-4-fluorophenyl)carbamoyl]cyclohexyl}-N^4-(2-methoxypropyl)-1H-imidazole-4,5-dicarboxamide], the IC50 against TNKS2 is 72 nM; in assay [1] it was 150 nM; in assay [2], 6800 nM.

Take `CNC(=O)c1nc[nH]c1C(=O)N[C@H]1CC[C@@]2(CCN(c3cc(C)c(F)cc3Cl)C2=O)CC1` [Example 288, N^5-[(trans)-2-(2-chloro-4-fluoro-5-methylphenyl)-1-oxo-2-azaspiro[4.5]dec-8-yl]-N^4-methyl-1H-imidazole-4,5-dicarboxamide]: the half-inhibitory concentration (IC50) at TNKS2 was determined as 2.8 nM; in assay [1] it was 1.4 nM; in assay [2] it was 20000 nM.

As for `O=C(NC[C@@H]1CCCO1)c1nc[nH]c1C(=O)N[C@H]1CC[C@H](C(=O)Nc2ccc(F)cc2Cl)CC1` [Example 79, N^5-{trans-4-[(2-chloro-4-fluorophenyl)carbamoyl]cyclohexyl}-N^4-[(2S)-tetrahydrofuran-2-ylmethyl]-1H-imidazole-4,5-dicarboxamide], the IC50 against TNKS2 turned out to be 100 nM; in assay [1] it was 140 nM; in assay [2], 43000 nM.

On to `CC(C)(O)CNC(=O)c1nc[nH]c1C(=O)N[C@H]1CC[C@@]2(CCN(c3cccc(Cl)c3)C2=O)CC1` [Example 284, N^5-[(trans)-2-(3-chlorophenyl)-1-oxo-2-azaspiro[4.5]dec-8-yl]-N^4-(2-hydroxy-2-methylpropyl)-1H-imidazole-4,5-dicarboxamide], for which the IC50 on TNKS2 stood at 220 nM; in assay [1] it was 100 nM; in assay [2], 6800 nM.

Turning to `O=C(N[C@H]1CC[C@H](C(=O)Nc2ccc(F)cc2Cl)CC1)c1cnc2ccc(N3CCCC3)nn12` [Example 51, N-{trans-4-[(2-chloro-4-fluorophenyl)carbamoyl]cyclohexyl}-6-(pyrrolidin-1-yl)imidazo[1,2-b]pyridazine-3-carboxamide], the IC50 was 31 nM on TNKS2, 290 nM in assay [1] and at least 50000 nM in assay [2].

`COC1CN(C(=O)c2nc[nH]c2C(=O)N[C@H]2CC[C@H](C(=O)Nc3ccc(F)cc3Cl)CC2)C1` [Example 24, 4 N-{trans-4-[(2-chloro-4-fluorophenyl)carbamoyl]cyclohexyl}-4-[(3-methoxyazetidin-1-yl)carbonyl]-1H-imidazole-5-carboxamide]: the IC50 at TNKS2 was 17 nM; in assay [1], 86 nM; in assay [2], at least 50000 nM.

On to `CNC(=O)c1[nH]cnc1C(=O)NC1CCC(C(=O)Nc2ccc(F)cc2Cl)CC1C` (single isomer, unassigned) [Example 41, N^4-{4-[(2-chloro-4-fluorophenyl)carbamoyl]-2-methylcyclohexyl}-N^5-methyl-1H-imidazole-4,5-dicarboxamide], for which the IC50 is above 10000 nM on TNKS2, 21000 nM in assay [1] and at least 50000 nM in assay [2].

On to `O=C(NC[C@H]1CCCO1)c1nc[nH]c1C(=O)N[C@H]1CC[C@H](C(=O)Nc2ccc(F)cc2Cl)CC1` [Example 80, N^5-{trans-4-[(2-chloro-4-fluorophenyl)carbamoyl]cyclohexyl}-N^4-[(2R)-tetrahydrofuran-2-ylmethyl]-1H-imidazole-4,5-dicarboxamide], for which the IC50 stood at 50 nM against TNKS2, 90 nM in assay [1] and 23000 nM in assay [2].

`O=C(NCC1CCCO1)c1nc[nH]c1C(=O)N[C@H]1CC[C@H](C(=O)Nc2c(F)cc(F)cc2Cl)CC1` (stereo partly drawn) [Example 69, N^5-{trans-4-[(2-chloro-4,6-difluorophenyl)carbamoyl]cyclohexyl}-N^4-(tetrahydrofuran-2-ylmethyl)-1H-imidazole-4,5-dicarboxamide]: the IC50 against TNKS2 was 57 nM; in assay [1] it was 170 nM; in assay [2], at least 50000 nM.

Regarding `O=C(N[C@H]1CC[C@H](C(=O)Nc2ccc(F)cc2Cl)CC1)c1[nH]cnc1C(=O)N1CC(F)(F)C1` [Example 72, N-{trans-4-[(2-chloro-4-fluorophenyl)carbamoyl]cyclohexyl}-4-[(3,3-difluoroazetidin-1-yl)carbonyl]-1H-imidazole-5-carboxamide], the results for the IC50 (on TNKS2; in assay [1]; in assay [2]) were 26 nM, 140 nM and at least 50000 nM, respectively.

Take `O=C(N[C@H]1CC[C@H](C(=O)Nc2ccc(F)cc2Cl)CC1)c1[nH]cnc1C(=O)N1CC2(CCS2(=O)=O)C1` [Example 22, N-{trans-4-[(2-chloro-4-fluorophenyl)carbamoyl]cyclohexyl}-4-[(1,1-dioxido-1-thia-6-azaspiro[3.3]hept-6-yl)carbonyl]-1H-imidazole-5-carboxamide]: the IC50 at TNKS2 is 5.3 nM; in assay [1], 24 nM; in assay [2], at least 50000 nM.

As for `Cc1cc(C)n2ncc(C(=O)N[C@H]3CC[C@@]4(CCN(c5cc(F)c(F)cc5Cl)C4=O)CC3)c2n1` [Example 299, N-[(trans)-2-(2-chloro-4,5-difluorophenyl)-1-oxo-2-azaspiro[4.5]dec-8-yl]-5,7-dimethylpyrazolo[1,5-a]pyrimidine-3-carboxamide], the IC50 was 2 nM against TNKS2, 0.9 nM in assay [1] and at least 50000 nM in assay [2].

Consider `Cc1cc(N2CCC[C@]3(CC[C@@H](NC(=O)c4cnn5cccnc45)CC3)C2=O)c(Cl)cc1F` [Example 300, N-[(trans)-2-(2-chloro-4-fluoro-5-methylphenyl)-1-oxo-2-azaspiro[5.5]undec-9-yl]pyrazolo[1,5-a]pyrimidine-3-carboxamide], for which the IC50 at TNKS2 is 45 nM; in assay [1], 18 nM; in assay [2], at least 500 nM.

Regarding `CC(C)(O)CNC(=O)c1nc[nH]c1C(=O)N[C@H]1CC[C@H](C(=O)Nc2ccc(F)cc2Cl)CC1` [Example 75, N^5-{trans-4-[(2-chloro-4-fluorophenyl)carbamoyl]cyclohexyl}-N^4-(2-hydroxy-2-methylpropyl)-1H-imidazole-4,5-dicarboxamide], the IC50 was 100 nM on TNKS2, 370 nM in assay [1] and at least 50000 nM in assay [2].

With `Cc1c(C(C)(C)O)cnc2c(C(=O)N[C@H]3CC[C@H](C(=O)Nc4ccc(F)cc4Cl)CC3)cnn12` [Example 359, N-{trans-4-[(2-chloro-4-fluorophenyl)carbamoyl]cyclohexyl}-6-(2-hydroxypropan-2-yl)-7-methylpyrazolo[1,5-a]pyrimidine-3-carboxamide], the values for the IC50 (against TNKS2; in assay [1]; in assay [2]) were above 10000 nM, 4000 nM and at least 50000 nM, respectively.
